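Tested at 5 concentrations; 48 h exposure; 96-well plates; endpoints linearly interpolated, else capped at highest concentration. At the GI50, growth is halved.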 The source made the active and inactive calls. No stated cut-off is given here; in the data, active = GI50 up to about 1.1 µM and inactive = higher.
Key:
Assay in all cases: NCI tumour cell line growth inhibition, 48 h
[1] = tested on: COLO 205
[2] = tested on: CAKI-1
[3] = tested on: RPMI-8226
[4] = tested on: SW-620
[5] = tested on: OVCAR-3
[6] = tested on: NCI-H522
[7] = tested on: EKVX
[8] = tested on: SR
[9] = tested on: MDA-MB-231
[10] = tested on: UACC-62
[11] = tested on: HOP-92
[12] = tested on: A549
[13] = tested on: NCI-H23
[14] = tested on: MOLT-4
[15] = tested on: U-251
[16] = tested on: PC-3
[17] = tested on: DU-145
[18] = tested on: SN12C
[19] = tested on: UACC-257

Measured: GI50

CS(=O)(=O)Nc1ccc2ccccc2c1
inactive: [1] > 100 µM | [2] > 100 µM | [3] > 100 µM | [4] > 100 µM | [5] > 100 µM | [6] > 100 µM | [7] 57.3 µM | [8] > 100 µM | [9] > 100 µM | [10] > 100 µM | [11] 87.7 µM | [12] > 100 µM | [13] > 100 µM | [14] > 100 µM | [15] > 100 µM | [16] > 100 µM | [17] > 100 µM | [18] > 100 µM | [19] > 100 µM

Cn1c(=O)c2nc(SCCN3CCOCC3)[nH]c2n(C)c1=S
inactive: [1] > 100 µM | [2] > 100 µM | [3] > 100 µM | [4] > 100 µM | [5] > 100 µM | [6] > 100 µM | [7] > 100 µM | [8] > 100 µM | [9] > 100 µM | [10] > 100 µM | [11] > 100 µM | [12] > 100 µM | [13] > 100 µM | [14] > 100 µM | [15] > 100 µM | [16] > 100 µM | [17] > 100 µM | [18] > 100 µM | [19] > 100 µM

O=c1c2ccccc2c2ccccc2c(=O)n1Cc1ccc2c(c1)OCO2
inactive: [1] 34 µM | [2] 69.7 µM | [3] 15.9 µM | [4] 33.3 µM | [5] 24.6 µM | [6] 30.8 µM | [7] 36.1 µM | [8] 4.91 µM | [9] > 96.2 µM | [10] 21.6 µM | [11] > 94.8 µM | [12] 32.1 µM | [13] 24.7 µM | [14] 12.9 µM | [15] > 62.2 µM | [16] 42.8 µM | [17] 49.9 µM | [18] 37.5 µM | [19] 57.1 µM

O=c1oc2ccccc2c(-c2ccc(O)cc2)c1Oc1ccccc1
inactive: [1] 29.4 µM | [2] 24.5 µM | [3] 28.1 µM | [4] 37.8 µM | [5] 17.5 µM | [6] 3.47 µM | [7] 15.7 µM | [8] 41.8 µM | [9] 3.17 µM | [10] 5.18 µM | [11] 10.2 µM | [12] 22.1 µM | [13] 6.32 µM | [14] 28.8 µM | [15] 8.51 µM | [16] 8.49 µM | [17] 4.25 µM | [18] 21.5 µM | [19] 7.83 µM

CCOC(=O)CCC(NC(=O)OCc1ccccc1)C(=O)NNC(=O)OC(C)(C)C (configuration not stated)
inactive: [1] > 100 µM | [2] > 100 µM | [3] > 100 µM | [4] > 100 µM | [5] > 100 µM | [6] > 100 µM | [7] > 100 µM | [8] > 100 µM | [9] 41.7 µM | [10] > 100 µM | [11] > 100 µM | [12] > 100 µM | [13] > 100 µM | [14] > 100 µM | [15] > 100 µM | [16] > 100 µM | [17] > 100 µM | [18] > 100 µM | [19] > 100 µM

COC(=O)C1(Cc2ccc3c(c2)CCC3)Cc2ccc3c(c2C1O)CCC3 (configuration not stated)
inactive: [1] 12.9 µM | [2] 14.2 µM | [3] 17 µM | [4] 14.5 µM | [5] 13.8 µM | [6] 10.9 µM | [7] 8.89 µM | [8] 12 µM | [9] 12.7 µM | [10] 15.5 µM | [11] 10.1 µM | [12] 14.1 µM | [13] > 10 µM | [14] > 100 µM | [15] 15.8 µM | [16] 15.1 µM | [17] 11.8 µM | [18] 15 µM | [19] 10.7 µM

COc1ccccc1NC1=NCC(C)S1 (configuration not stated)
inactive: [1] > 100 µM | [2] > 100 µM | [3] > 100 µM | [4] > 100 µM | [5] > 100 µM | [6] > 100 µM | [7] > 100 µM | [8] > 100 µM | [9] > 100 µM | [10] > 100 µM | [11] > 100 µM | [12] > 100 µM | [13] > 100 µM | [14] > 100 µM | [15] > 100 µM | [16] > 100 µM | [17] > 100 µM | [18] > 100 µM | [19] > 100 µM

CCOCc1nc2c(OC)c(-c3nc4ccc(N5CCN(C)CC5)cc4[nH]3)cc(OC)c2[nH]1
inactive: [1] 18.9 µM | [2] 27.6 µM | [3] 40.1 µM | [4] 34.7 µM | [5] 31.6 µM | [6] 23.5 µM | [7] > 100 µM | [8] 24.2 µM | [9] 28.2 µM | [10] 19.6 µM | [11] > 100 µM | [12] 46.9 µM | [13] 37.8 µM | [14] 31.2 µM | [15] 43.3 µM | [16] 63.4 µM | [17] 68.5 µM | [18] 74.3 µM | [19] 19 µM

— ChEMBL document CHEMBL1201862, “PubChem BioAssay data set” (2004)
